Reference: patent US20100317671A1, “XANTHINE-BASED CYCLIC GMP-ENHANCING RHO-KINASE INHIBITOR INHIBITS PHYSIOLOGICAL ACTIVITIES OF LUNG EPITHELIAL CELL LINE” (KAOHSIUNG MEDICAL UNIVERSITY, priority 2008, published 2010)

Legend:
Type in all cases: in vivo
[1] = system: NOx; experiment: NOx levels in BALF of OVA-sensitized and -challenged mice (Griess reagent); conditions: 24 hrs after last OVA challenge; basal 65.4, OVA 162.8 μM
[2] = system: iNOS; experiment: Western blotting of lung tissue, OVA-sensitized and -challenged mice; conditions: nebulization, 28-day experiment
[3] = system: eNOS; experiment: Immunostaining of lung sections, OVA mice
Description: OVA decreases vascular eNOS-immunostaining in lung sections, but KMUP-1 prevents this decrease quantitatively.

`Cn1c(=O)c2c(ncn2CCN2CCN(c3ccccc3Cl)CC2)n(C)c1=O` [KMUP-1, 7-[2-[4-(2-chlorobenzene)piperazinyl]ethyl]-1,3-dimethylxanthine] was tested, and the “Levels of NOx (nitrate+nitrite) in BALF” value [1] was 86.3 ± 17.3 µM, the “iNOS expression increased by OVA sensitization” value [2] was “significantly reduced” and the “Vascular eNOS-immunostaining decreased by OVA” value [3] was “prevents”.
